Values quoted from earlier work as cited in US20190307734A1 (Zhuhai Beihai Biotech Co., Ltd., priority 2016, published 2019).

How the values were obtained:
[1] = not given; remark: listed apart in the source
p-glycoprotein = p-glycoprotein (Homo sapiens, UniProt P08183); conditions: in vitro
CYP 2D6 = CYP 2D6 (Homo sapiens, UniProt P10635); conditions: in vitro
CYP 2C9 = CYP 2C9 (Homo sapiens, UniProt P11712); conditions: in vitro
[2] = tested on: cytochrome P450 3A4 (CYP3A4)
CYP 2C19 = CYP 2C19 (Homo sapiens, UniProt P33261); conditions: in vitro
CYP 2C19, sequence (P33261 whole entry): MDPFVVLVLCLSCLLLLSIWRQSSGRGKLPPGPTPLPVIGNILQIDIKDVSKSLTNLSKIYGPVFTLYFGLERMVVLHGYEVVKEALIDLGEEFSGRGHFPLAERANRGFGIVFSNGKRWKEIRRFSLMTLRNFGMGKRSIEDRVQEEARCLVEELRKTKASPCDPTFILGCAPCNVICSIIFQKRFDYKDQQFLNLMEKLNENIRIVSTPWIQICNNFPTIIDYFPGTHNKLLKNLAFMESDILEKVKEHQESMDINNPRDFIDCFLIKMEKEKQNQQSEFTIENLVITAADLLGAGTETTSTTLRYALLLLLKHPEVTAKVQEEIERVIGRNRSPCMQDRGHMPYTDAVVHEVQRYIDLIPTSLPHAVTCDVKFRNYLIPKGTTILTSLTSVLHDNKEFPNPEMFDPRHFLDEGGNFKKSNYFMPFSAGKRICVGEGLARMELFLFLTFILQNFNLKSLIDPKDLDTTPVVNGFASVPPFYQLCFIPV

p-glycoprotein, sequence (P08183 whole entry): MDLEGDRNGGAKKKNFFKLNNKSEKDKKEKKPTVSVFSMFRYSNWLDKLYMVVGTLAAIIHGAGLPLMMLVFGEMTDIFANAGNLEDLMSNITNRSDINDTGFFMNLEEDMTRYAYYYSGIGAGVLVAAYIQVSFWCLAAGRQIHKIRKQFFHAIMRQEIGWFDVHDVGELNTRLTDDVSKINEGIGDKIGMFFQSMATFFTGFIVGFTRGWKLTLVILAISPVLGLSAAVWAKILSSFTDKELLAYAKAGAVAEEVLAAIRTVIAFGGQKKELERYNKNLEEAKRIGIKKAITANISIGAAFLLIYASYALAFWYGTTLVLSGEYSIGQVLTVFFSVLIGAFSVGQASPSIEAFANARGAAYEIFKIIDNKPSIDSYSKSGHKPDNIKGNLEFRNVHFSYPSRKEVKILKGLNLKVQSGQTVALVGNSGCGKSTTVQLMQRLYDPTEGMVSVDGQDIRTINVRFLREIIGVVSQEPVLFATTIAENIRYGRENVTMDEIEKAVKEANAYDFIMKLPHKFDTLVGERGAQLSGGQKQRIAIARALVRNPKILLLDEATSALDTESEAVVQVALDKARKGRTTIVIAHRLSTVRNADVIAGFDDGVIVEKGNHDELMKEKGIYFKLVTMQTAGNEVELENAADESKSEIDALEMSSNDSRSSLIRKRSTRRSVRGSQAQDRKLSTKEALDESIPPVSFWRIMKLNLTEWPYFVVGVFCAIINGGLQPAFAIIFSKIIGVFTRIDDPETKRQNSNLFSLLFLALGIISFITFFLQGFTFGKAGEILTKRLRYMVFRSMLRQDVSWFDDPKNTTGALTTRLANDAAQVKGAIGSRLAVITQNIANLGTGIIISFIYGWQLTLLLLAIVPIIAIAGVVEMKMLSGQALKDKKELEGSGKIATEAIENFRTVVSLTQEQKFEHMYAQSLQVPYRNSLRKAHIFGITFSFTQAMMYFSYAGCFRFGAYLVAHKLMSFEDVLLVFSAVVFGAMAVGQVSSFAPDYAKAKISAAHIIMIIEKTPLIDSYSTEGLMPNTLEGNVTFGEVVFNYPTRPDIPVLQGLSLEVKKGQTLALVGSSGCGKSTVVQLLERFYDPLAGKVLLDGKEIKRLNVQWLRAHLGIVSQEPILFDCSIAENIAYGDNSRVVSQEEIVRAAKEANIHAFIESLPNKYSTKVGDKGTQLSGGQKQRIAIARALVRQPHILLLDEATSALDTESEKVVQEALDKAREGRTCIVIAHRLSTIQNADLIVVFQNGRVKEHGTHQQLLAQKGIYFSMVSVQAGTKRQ
CYP 2D6, sequence (P10635 whole entry): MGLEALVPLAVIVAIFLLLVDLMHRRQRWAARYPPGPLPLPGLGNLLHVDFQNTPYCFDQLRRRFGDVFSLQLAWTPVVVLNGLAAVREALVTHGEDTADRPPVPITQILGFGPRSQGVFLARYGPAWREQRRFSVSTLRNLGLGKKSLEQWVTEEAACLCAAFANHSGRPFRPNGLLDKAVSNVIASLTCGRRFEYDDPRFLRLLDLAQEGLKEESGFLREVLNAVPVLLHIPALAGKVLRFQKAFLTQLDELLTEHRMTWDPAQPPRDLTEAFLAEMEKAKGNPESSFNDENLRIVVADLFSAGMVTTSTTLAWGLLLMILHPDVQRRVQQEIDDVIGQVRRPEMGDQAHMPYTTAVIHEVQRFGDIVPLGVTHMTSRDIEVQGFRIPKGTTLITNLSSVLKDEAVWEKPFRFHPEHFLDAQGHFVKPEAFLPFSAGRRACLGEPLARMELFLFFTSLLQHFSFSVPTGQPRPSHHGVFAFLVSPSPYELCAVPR
CYP 2C9, sequence (P11712 whole entry): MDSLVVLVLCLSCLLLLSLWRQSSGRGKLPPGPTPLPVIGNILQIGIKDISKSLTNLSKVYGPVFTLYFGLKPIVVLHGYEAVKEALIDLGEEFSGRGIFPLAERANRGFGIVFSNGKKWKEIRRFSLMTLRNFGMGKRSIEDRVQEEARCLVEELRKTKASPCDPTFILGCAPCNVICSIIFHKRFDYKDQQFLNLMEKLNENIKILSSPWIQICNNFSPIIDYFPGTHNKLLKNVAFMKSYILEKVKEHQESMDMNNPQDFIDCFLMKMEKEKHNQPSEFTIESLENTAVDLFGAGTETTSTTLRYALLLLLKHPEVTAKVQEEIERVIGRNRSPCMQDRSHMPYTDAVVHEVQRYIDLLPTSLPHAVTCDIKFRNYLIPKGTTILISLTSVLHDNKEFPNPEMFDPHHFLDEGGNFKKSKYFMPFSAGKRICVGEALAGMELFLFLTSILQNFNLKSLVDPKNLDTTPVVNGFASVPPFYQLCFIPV

SMILES | solubility in aqueous solution, pH dependence (aqueous solution) | solubility in common pharmaceutical solvents (ethanol, propylene glycol, 40% hydroxypropyl beta cyclodextrin) | absorption after oral dosing [1] | inhibition of p-glycoprotein (p-glycoprotein) | protein bound to human plasma (human plasma) [%] | inhibition of CYP 2D6 (CYP 2D6) | inhibition of CYP 2C9 (CYP 2C9) | induction or inhibition of CYP3A4 enzyme ([2]; Hesketh et al., Cancer 2016) | inhibition of CYP 3A4 ([2]; in vitro) | solubility at physiological pH (pH 7.4) [mcg/ml] | solubility in water (water) | inhibition of CYP 2C19 (CYP 2C19)
C[C@@H](OC[C@@]1(c2ccccc2)CC[C@]2(CCC(=O)N2)CN1)c1cc(C(F)(F)F)cc(C(F)(F)F)c1.Cl [Rolapitant hydrochloride, rolapitant hydrochloride] | pH-dependent and is more soluble at lower pH | good solubility |  |  |  |  |  |  |  |  |  | 
C[C@@H](OC[C@@]1(c2ccccc2)CC[C@]2(CCC(=O)N2)CN1)c1cc(C(F)(F)F)cc(C(F)(F)F)c1 [Rolapitant, rolapitant] |  |  | rapidly absorbed | did not inhibit | 99.8 | did not inhibit | did not inhibit | does not induce or inhibit | did not inhibit | < 4 | practically insoluble | did not inhibit
